The values below come from US8664216B2, “Spiro-5,6-dihydro-4H-2,3,5,10b-tetraaza-benzo[e]azulenes” (Hoffmann-La Roche Inc., priority 2008, dated 2014).

Structures are written as SMILES. Structures can show the parent of a compound that is named as a salt.

For one experiment, the target named is T1, human V1a receptor (Homo sapiens, UniProt P37288).
T1 construct: expressed in transfected cells; host or cells: HEK293 cells, transiently transfected; membranes prepared
T1 sequence (P37288 whole entry): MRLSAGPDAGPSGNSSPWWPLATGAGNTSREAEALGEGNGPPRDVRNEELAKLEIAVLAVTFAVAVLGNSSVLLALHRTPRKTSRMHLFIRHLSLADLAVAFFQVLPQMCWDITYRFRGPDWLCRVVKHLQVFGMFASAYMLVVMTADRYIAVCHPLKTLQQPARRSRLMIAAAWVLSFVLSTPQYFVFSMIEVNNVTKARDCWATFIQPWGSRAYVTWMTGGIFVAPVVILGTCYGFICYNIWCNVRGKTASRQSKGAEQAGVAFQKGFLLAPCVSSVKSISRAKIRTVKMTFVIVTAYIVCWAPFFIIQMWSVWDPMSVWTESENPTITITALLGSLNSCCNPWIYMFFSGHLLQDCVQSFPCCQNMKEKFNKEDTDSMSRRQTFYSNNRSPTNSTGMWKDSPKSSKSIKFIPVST
Briefly: human V1a receptor binding studies (3H-Vasopressin SPA, membranes of transfected HEK293 cells).
Conditions: not given
As to the method:
The human V1a receptor was cloned by RT-PCR from total human liver RNA. The coding sequence was subcloned in an expression vector after sequencing to confirm the identity of the amplified sequence. […] Cell membranes were prepared from HEK293 cells transiently transfected with the expression vector and grown in 20 liter fermenters with the following protocol.
50 g of cells are resuspended in 30 ml freshly prepared ice cold Lysis buffer (50 mM HEPES, 1 mM EDTA, 10 mM MgCl2 adjusted to pH=7.4+complete cocktail of protease inhibitor (Roche Diagnostics)). Homogenized with Polytron for 1 min and sonicated on ice for 2×2 minutes at 80% intensity (Vibracell sonicator). The preparation is centrifuged 20 min at 500 g at 4° C., the pellet is discarded and the supernatant centrifuged 1 hour at 43,000 g at 4° C. (19,000 rpm). The pellet is resuspended in 12.5 ml Lysis buffer+12.5 ml Sucrose 20% and homogenized using a Polytron for 1-2 min. The protein concentration is determined by the Bradford method and aliquots are stored at −80° C. until use. For binding studies 60 mg Yttrium silicate SPA beads (Amersham) are mixed with an aliquot of membrane in binding buffer (50 mM Tris, 120 mM NaCl, 5 mM KCl, 2 mM CaCl2, 10 mM MgCl2) for 15 minutes with mixing. 50 μl of bead/membrane mixture is then added to each well of a 96 well plate, followed by 50 μl of 4 nM 3H-Vasopressin (American Radiolabeled Chemicals). For total binding measurement 100 μl of binding buffer are added to the respective wells, for non-specific binding 100 μl of […] cold vasopressin and for compound testing 100 μl of a serial dilution of each compound in 2% DMSO. The plate is incubated 1 h at room temperature, centrifuged 1 min at 1000 g and counted on a Packard Top-Count. Non-specific binding counts are subtracted from each well and data is normalized to the maximum specific binding set at 100%. To calculate an IC 50 the curve is fitted using a non-linear regression model (XLfit) and the Ki is calculated using the Cheng-Prussoff equation.
Turning to `CC(C)(C)OC(=O)N1Cc2cc(Cl)ccc2-n2c(nnc2[C@H]2CC[C@@]3(CC2)OCc2ccccc23)C1` [Example 1, tert-Butyl 8-chloro-1-[(1r,4′r)-3H-spiro[2-benzofuran-1,1′-cyclohexan]-4′-yl]-4H-[1,2,4]triazolo[4,3-a][1,4]benzodiazepine-5(6H)-carboxylate], the Ki is 4.57 nM.

`Clc1ccc2c(c1)CNCc1nnc([C@H]3CC[C@@]4(CC3)OCc3ccccc34)n1-2` [Example 2, 8-Chloro-1-[(1r,4′r)-3H-spiro[2-benzofuran-1,1′-cyclohexan]-4′-yl]-5,6-dihydro-4H-[1,2,4]triazolo[4,3-a][1,4]benzodiazepine hydrochloride]: the Ki is 39.8 nM.

As for `CN1Cc2cc(Cl)ccc2-n2c(nnc2[C@H]2CC[C@@]3(CC2)OCc2ccccc23)C1` [Example 3, 8-Chloro-5-methyl-1-[(1r,4′r)-3H-spiro[2-benzofuran-1,1′-cyclohexan]-4′-yl]-5,6-dihydro-4H-[1,2,4]triazolo[4,3-a][1,4]benzodiazepine], the Ki is 2.82 nM.

For the compound `Clc1ccc2c(c1)CNCc1nnc([C@H]3CC[C@]4(CC3)OCc3ccccc34)n1-2` [Example 5, 8-Chloro-1-[(1s,4′s)-3H-spiro[2-benzofuran-1,1′-cyclohexan]-4′-yl]-5,6-dihydro-4H-[1,2,4]triazolo[4,3-a][1,4]benzodiazepine hydrochloride], the Ki was 16.2 nM.

`CN1Cc2cc(Cl)ccc2-n2c(nnc2N2CCC3(CC2)OCc2ccccc23)C1` [Example 9, 8-Chloro-5-methyl-1-(1′H,3H-spiro[2-benzofuran-1,4′-piperidin]-1′-yl)-5,6-dihydro-4H-[1,2,4]triazolo[4,3-a][1,4]benzodiazepine] gave a Ki of 2.4 nM.

On to `Clc1ccc2c(c1)CN(Cc1ccccn1)Cc1nnc(N3CCC4(CC3)OCc3ccccc34)n1-2` [Example 12, 8-Chloro-5-(pyridin-2-ylmethyl)-1-(1′H,3H-spiro[2-benzofuran-1,4′-piperidin]-1′-yl)-5,6-dihydro-4H-[1,2,4]triazolo[4,3-a][1,4]benzodiazepine], for which the Ki is 1.82 nM.

Compound `CN1Cc2cc(Cl)ccc2-n2c(nnc2N2CCC3(CC2)OC(=O)c2ccccc23)C1` [Example 27, 1′-(8-Chloro-5-methyl-5,6-dihydro-4H-[1,2,4]triazolo[4,3-a][1,4]benzodiazepin-1-yl)-3H-spiro[2-benzofuran-1,4′-piperidin]-3-one] gave a Ki of 12.3 nM.

Compound `CN1Cc2cc(Cl)ccc2-n2c(nnc2N2CCC3(CC2)SCc2ccccc23)C1` [Example 29] showed a Ki of 1.74 nM.

`CN1Cc2cc(Cl)ccc2-n2c(nnc2N2CCC3(CC2)c2ccccc2CS3(=O)=O)C1` [Example 31, 8-Chloro-1-(2,2-dioxido-1′H,3H-spiro[2-benzothiophene-1,4′-piperidin]-1′-yl)-5-methyl-5,6-dihydro-4H-[1,2,4]triazolo[4,3-a][1,4]benzodiazepine] had a Ki of 47.9 nM.

Compound `CN1Cc2cc(Cl)ccc2-n2c(nnc2N2CCC3(CC2)COCc2ccccc23)C1` [Example 32, 1′-(8-Chloro-5-methyl-5,6-dihydro-4H-[1,2,4]triazolo[4,3-a][1,4]benzodiazepin-1-yl)-1H-spiro[isochromene-4,4′-piperidine]] had a Ki of 2.19 nM.

Take `CN1Cc2cc(Cl)ccc2-n2c(nnc2N2CCC3(CC2)OCCc2ccccc23)C1` [Example 35, 1′-(8-Chloro-5-methyl-5,6-dihydro-4H-[1,2,4]triazolo[4,3-a][1,4]benzodiazepin-1-yl)-3,4-dihydrospiro[isochromene-1,4′-piperidine]]: the Ki was 10.5 nM.

Still in this experiment, the particulars now being: 3H-Vasopressin displacement, HEK293 cell membranes, Ki calculated from IC50 by Cheng-Prussoff equation; read-out: pKi hV1a (converted).
For `CC1OC2(CCN(c3nnc4n3-c3ccc(Cl)cc3CN(C(=O)OC(C)(C)C)C4)CC2)c2ccccc21` (racemic) [Example 24, (RS)-tert-Butyl 8-chloro-1-(3-methyl-1′H,3H-spiro[2-benzofuran-1,4′-piperidin]-1′-yl)-4H-[1,2,4]triazolo[4,3-a][1,4]benzodiazepine-5(6H)-carboxylate], the Ki was 10.7 nM.

Regarding `CC1OC2(CCN(c3nnc4n3-c3ccc(Cl)cc3CN(C)C4)CC2)c2ccccc21` (racemic) [Example 26, (RS)-8-Chloro-5-methyl-1-(3-methyl-1′H,3H-spiro[2-benzofuran-1,4′-piperidin]-1′-yl)-5,6-dihydro-4H-[1,2,4]triazolo[4,3-a][1,4]benzodiazepine], the Ki is 4.79 nM.

Regarding `CC(C)(C)OC(=O)N1Cc2cc(Cl)ccc2-n2c(nnc2N2CCC3(CC2)OCc2ccccc23)C1` [Example 7, tert-Butyl 8-chloro-1-(1′H,3H-spiro[2-benzofuran-1,4′-piperidin]-1′-yl)-4H-[1,2,4]triazolo[4,3-a][1,4]benzodiazepine-5(6H)-carboxylate], the Ki is 4.47 nM.

In the case of `CC(C)N1Cc2cc(Cl)ccc2-n2c(nnc2N2CCC3(CC2)OCc2ccccc23)C1` [Example 10, 8-Chloro-5-isopropyl-1-(1′H,3H-spiro[2-benzofuran-1,4′-piperidin]-1′-yl)-5,6-dihydro-4H-[1,2,4]triazolo[4,3-a][1,4]benzodiazepine], the Ki is 1.82 nM.

As to `CC(=O)N1Cc2cc(Cl)ccc2-n2c(nnc2N2CCC3(CC2)OCc2ccccc23)C1` [Example 15], the Ki was 4.17 nM.

Take `CN(C)CC(=O)N1Cc2cc(Cl)ccc2-n2c(nnc2N2CCC3(CC2)OCc2ccccc23)C1` [Example 16, 2-[8-Chloro-1-(1′H,3H-spiro[2-benzofuran-1,4′-piperidin]-1′-yl)-4H-[1,2,4]triazolo[4,3-a][1,4]benzodiazepin-5(6H)-yl]-N,N-dimethyl-2-oxoethanamine]: the Ki is 6.76 nM.

Take `CC(C)(C)OC(=O)N1Cc2cc(Cl)ccc2-n2c(nnc2N2CCC3(CC2)OCc2ccc(F)cc23)C1` [Example 17, tert-Butyl 8-chloro-1-(6-fluoro-1′H,3H-spiro[2-benzofuran-1,4′-piperidin]-1′-yl)-4H-[1,2,4]triazolo[4,3-a][1,4]benzodiazepine-5(6H)-carboxylate]: the Ki was 10.2 nM.

For `CN1Cc2cc(Cl)ccc2-n2c(nnc2N2CCC3(CC2)OCc2ccc(F)cc23)C1` [Example 19, 8-Chloro-1-(6-fluoro-1′H,3H-spiro[2-benzofuran-1,4′-piperidin]-1′-yl)-5-methyl-5,6-dihydro-4H-[1,2,4]triazolo[4,3-a][1,4]benzodiazepine], the Ki is 7.59 nM.

For the compound `CN1Cc2cc(Cl)ccc2-n2c(nnc2N2CCC3(CC2)OCc2cccc(F)c23)C1` [Example 22, 8-Chloro-1-(7-fluoro-1′H,3H-spiro[2-benzofuran-1,4′-piperidin]-1′-yl)-5-methyl-5,6-dihydro-4H-[1,2,4]triazolo[4,3-a][1,4]benzodiazepine], the Ki was 3.98 nM.

Regarding `CN1Cc2cc(Cl)ccc2-n2c(nnc2N2CCC3(CC2)OCc2cc(F)ccc23)C1` [Example 23, 8-Chloro-1-(5-fluoro-1′H,3H-spiro[2-benzofuran-1,4′-piperidin]-1′-yl)-5-methyl-5,6-dihydro-4H-[1,2,4]triazolo[4,3-a][1,4]benzodiazepine], the Ki is 2.09 nM.

On to `CN1Cc2cc(Cl)ccc2-n2c(nnc2N2CCC[C@@]3(CC2)OCc2ccccc23)C1` [Example 36, (+)-1-(8-Chloro-5-methyl-5,6-dihydro-4H-[1,2,4]triazolo[4,3-a][1,4]benzodiazepin-1-yl)-3′H-spiro[azepane-4,1′-[2]benzofuran]], for which the Ki was 1.45 nM.

For the compound `CN1Cc2cc(Cl)ccc2-n2c(nnc2N2CCC[C@]3(CC2)OCc2ccccc23)C1` [Example 37, (−)-1-(8-Chloro-5-methyl-5,6-dihydro-4H-[1,2,4]triazolo[4,3-a][1,4]benzodiazepin-1-yl)-3′H-spiro[azepane-4,1′-[2]benzofuran]], the Ki was 5.01 nM.
